Results from patent US8617818B2, “Compositions and methods for diagnosis and prognosis of cancer and progression, and for screening anti-cancer agents” (Tufts Medical Center, priority 2009, dated 2013).

System: MCF10A cells
Assay: Transwell migration assay
Type: cell-based, human
Settings: TGFβ 20 ng/mL
Description: Transwell migration assays were performed according to Irie et al., 2005 J. Cell Biol. 171: 1023. MCF10A cells were transfected with a negative control siRNA designed to have no sequence similarity to a human transcript sequence (#AM4611) or siRNAs for Akt1 (#S660) or Akt2 (#S1216), or siRNAs for both Akt 1 and Akt2 (50 nM). Twenty four hours after transfection, cells were cultured overnight in assay medium (MCF10A growth medium containing 2% serum±TGFβ (20 ng/mL)). Sixteen hours later, cells were trypsinized and 10^5 cells were added to the top chambers of
24-well transwell plates (8 μm pore size; BD Bioscience, Bedford, Mass.). The bottom chambers were filled with assay medium. […] The significance of variability between a given group and its corresponding control was determined with the unpaired t test.
The mRNAs encoding Akt1 and Akt2, which are present in similar abundance in untransfected MCF10A cells (FIG. 10), were respectively knocked down by transfection with small interfering RNA (siRNA) directed against Akt1 or Akt2. […] After transfection with these siRNAs, the cells were analyzed for the abundance of Zeb1, Zeb2, and E-cadherin before and 24 hours after treatment with TGFβ. […] Parallel cultures of similarly treated cells were therefore used to measured cell migration by means of a Transwell cell migration assay.

Substance: TGFβ
- enhancement of cell migration (Akt1 siRNA-transfected MCF10A cells): 22 times
- enhancement of cell migration (untransfected MCF10A cells): 7.7 times
